Data: ChEMBL document CHEMBL3608295, “Antimicrobial activity of doubly-stapled alanine/lysine-based peptides” (Bioorg Med Chem Lett, 2015)
In brackets after ≈: the same amount, converted by molar mass. Starred links: 1 amine or outer side, 2 acyl side, 3 side chain; linkers in the order of their positions; H or OH if unused. Positions of bridges follow the written chain, without caps; N, C: chain ends. Non-standard residues stand in square brackets, D forms with d. Residues, ends and D or L forms follow the SMILES beside them. R5 = C=CCCC[C@@](C)(N)C(=O)O; Suc = O=C(CCC(=O)[*:2])[*:1]

Tests used:
[1] = system: Escherichia coli; experiment: Antimicrobial activity against Escherichia coli ATCC 25922 after 24 hrs by broth microdilution method; type: functional; conditions: ATCC 25922, 24 h
[2] = system: Salmonella typhimurium; experiment: Antimicrobial activity against Salmonella typhimurium ATCC 14028 after 24 hrs by broth microdilution method; type: functional, Salmonella enterica subsp. enterica serovar Typhimurium; conditions: Salmonella enterica, ATCC 14028, 24 h
[3] = system: Shigella dysenteriae; experiment: Antimicrobial activity against Shigella dysenteriae ATCC 9752 after 24 hrs by broth microdilution method; type: functional; conditions: ATCC 9752, 24 h
[4] = system: Staphylococcus epidermidis; experiment: Antimicrobial activity against Staphylococcus epidermidis ATCC 12228 after 24 hrs by broth microdilution method; type: functional; conditions: ATCC 12228, 24 h
[5] = system: Bacillus spizizenii; experiment: Antimicrobial activity against Bacillus subtilis ATCC 6633 after 24 hrs by broth microdilution method; type: functional; conditions: ATCC 6633, 24 h
[6] = system: Klebsiella pneumoniae; experiment: Antimicrobial activity against Klebsiella pneumoniae ATCC 10031 after 24 hrs by broth microdilution method; type: functional; conditions: ATCC 10031, 24 h
[7] = system: Pseudomonas aeruginosa; experiment: Antimicrobial activity against Pseudomonas aeruginosa ATCC 27853 after 24 hrs by broth microdilution method; type: functional; conditions: ATCC 27853, 24 h
[8] = system: Staphylococcus aureus; experiment: Antimicrobial activity against Staphylococcus aureus ATCC 6538p after 24 hrs by broth microdilution method; type: functional
[9] = Hemolytic activity in human RBC at 12.5 uM after 30 mins relative to control; type: ADME, cell-based, Erythrocyte; conditions: human red blood cells (RBC), read-out: Activity
[10] = Hemolytic activity in human RBC at 25 uM after 30 mins relative to control; type: ADME, cell-based, Erythrocyte; conditions: human red blood cells (RBC), read-out: Activity
[11] = (§1) Stability of the compound assessed as trypsin (unknown origin)-mediated compound degradation at substrate/enzyme ratio of 1600/1 at 25 degC after 10 mins by HPLC analysis; type: ADME; conditions: human, 10 min
[12] = system: trypsin; experiment: Stability of the compound assessed as trypsin (unknown origin)-mediated compound degradation by measuring compound remaining at substrate/enzyme ratio of 1600/1 at 25 degC after 60 mins by HPLC analysis; type: ADME; conditions: human, read-out: Stability
[13] = system: trypsin; experiment: as §1; type: ADME; conditions: human, trypsin (unknown origin); read-out: Drug degradation

Row | Molecule | MIC [1] | MIC [2] | MIC [3] | MIC [4] | MIC [5] | MIC [6] | MIC [7] | MIC [8] | hemolysis at 0.5 h, 12.5 µM [9] | hemolysis at 0.5 h, 25 µM [10] | Stability [11] | remaining at 1 h [12] | metabolised at 10 min [13]
1 | CC(=O)N[C@@H](CCCCN)C(=O)N[C@]1(C)CCC/C=C\CCC[C@](C)(C(=O)N[C@@H](CCCCN)C(=O)N[C@@H](CCCCN)C(=O)N[C@]2(C)CCC/C=C\CCC[C@](C)(C(=O)N[C@@H](C)C(=O)N[C@@H](CCCCN)C(N)=O)NC(=O)[C@H](C)NC(=O)[C@H](CCCCN)NC(=O)[C@H](C)NC2=O)NC(=O)[C@H](C)NC(=O)[C@H](CCCCN)NC(=O)[C@H](Cc2c[nH]c3ccccc23)NC1=O (Ac-K[R5]WKA[R5]KK[R5]AKA[R5]AK-NH2; staple (Z) 2-6, 9-13) | 25 µg/mL (≈ 13.9 µM) | 100 µg/mL (≈ 55.6 µM) | 50 µg/mL (≈ 27.8 µM) | 4.8 µg/mL (≈ 2.67 µM) | 3.1 µg/mL (≈ 1.72 µM) | 100 µg/mL (≈ 55.6 µM) | 200 µg/mL (≈ 111 µM) | 4.8 µg/mL (≈ 2.67 µM) | 28.9% | 42.5% |  |  | 
2 | C[C@@H]1NC(=O)[C@H](CCCCN)NC(=O)[C@H](C)NC(=O)[C@](C)(NC(=O)[C@H](CCCCN)NC(=O)[C@H](CCCCN)NC(=O)[C@@]2(C)CCC/C=C\CCC[C@@](C)(NC(=O)[C@H](CCCCN)NC(=O)CCC(=O)O)C(=O)N[C@@H](C)C(=O)N[C@@H](CCCCN)C(=O)N[C@@H](Cc3c[nH]c4ccccc34)C(=O)N2)CCC/C=C\CCC[C@](C)(C(=O)N[C@@H](C)C(=O)N[C@@H](CCCCN)C(N)=O)NC1=O (Suc-K[R5]AKW[R5]KK[R5]AKA[R5]AK-NH2; staple (Z) 2-6, 9-13) | 12.5 µg/mL (≈ 6.73 µM) | > 200 µg/mL | 50 µg/mL (≈ 26.9 µM) | 1.6 µg/mL (≈ 0.861 µM) | 1.6 µg/mL (≈ 0.861 µM) | 25 µg/mL (≈ 13.5 µM) | 50 µg/mL (≈ 26.9 µM) | 1.6 µg/mL (≈ 0.861 µM) | 19.5% | 32.6% |  |  | 
3 | CC(=O)N[C@@H](CCCCN)C(=O)N[C@]1(C)CCC/C=C\CCC[C@](C)(C(=O)N[C@@H](CCCCN)C(=O)N[C@@H](CCCCN)C(=O)N[C@]2(C)CCC/C=C\CCC[C@](C)(C(=O)N[C@@H](C)C(=O)N[C@@H](CCCCN)C(N)=O)NC(=O)[C@H](C)NC(=O)[C@H](CCCCN)NC(=O)[C@H](C)NC2=O)NC(=O)[C@H](Cc2c[nH]c3ccccc23)NC(=O)[C@H](CCCCN)NC(=O)[C@H](C)NC1=O (Ac-K[R5]AKW[R5]KK[R5]AKA[R5]AK-NH2; staple (Z) 2-6, 9-13) | 18.8 µg/mL (≈ 10.4 µM) | 37.5 µg/mL (≈ 20.8 µM) | 25 µg/mL (≈ 13.9 µM) | 1.6 µg/mL (≈ 0.889 µM) | 1.6 µg/mL (≈ 0.889 µM) | 37.5 µg/mL (≈ 20.8 µM) | 25 µg/mL (≈ 13.9 µM) | 1.6 µg/mL (≈ 0.889 µM) | 22% | 38.5% |  |  | 
4 | Ac-KAAKAAKKAAKAAWK-NH2 | > 200 µg/mL | > 200 µg/mL | > 200 µg/mL | > 200 µg/mL | > 200 µg/mL | > 200 µg/mL | > 200 µg/mL | > 200 µg/mL | < 1% | < 1% | Unstable |  | 
5 | CC(=O)N[C@@H](CCCCN)C(=O)N[C@]1(C)CCC/C=C\CCC[C@](C)(C(=O)N[C@@H](CCCCN)C(=O)N[C@@H](CCCCN)C(=O)N[C@]2(C)CCC/C=C\CCC[C@](C)(C(=O)N[C@@H](Cc3c[nH]c4ccccc34)C(=O)N[C@@H](CCCCN)C(N)=O)NC(=O)[C@H](C)NC(=O)[C@H](CCCCN)NC(=O)[C@H](C)NC2=O)NC(=O)[C@H](C)NC(=O)[C@H](CCCCN)NC(=O)[C@H](C)NC1=O (Ac-K[R5]AKA[R5]KK[R5]AKA[R5]WK-NH2; staple (Z) 2-6, 9-13) | 25 µg/mL (≈ 13.9 µM) | 100 µg/mL (≈ 55.6 µM) | 25 µg/mL (≈ 13.9 µM) | 3.1 µg/mL (≈ 1.72 µM) | 1.6 µg/mL (≈ 0.889 µM) | 200 µg/mL (≈ 111 µM) | 100 µg/mL (≈ 55.6 µM) | 4.8 µg/mL (≈ 2.67 µM) | 22.1% | 38.8% |  | > 85% | 
6 | C[C@@H]1NC(=O)[C@H](CCCCN)NC(=O)[C@H](C)NC(=O)[C@](C)(NC(=O)[C@H](CCCCN)NC(=O)[C@H](CCCCN)NC(=O)[C@@]2(C)CCC/C=C\CCC[C@@](C)(NC(=O)[C@@H](N)CCCCN)C(=O)N[C@@H](C)C(=O)N[C@@H](CCCCN)C(=O)N[C@@H](Cc3c[nH]c4ccccc34)C(=O)N2)CCC/C=C\CCC[C@](C)(C(=O)N[C@@H](C)C(=O)N[C@@H](CCCCN)C(N)=O)NC1=O (H-K[R5]AKW[R5]KK[R5]AKA[R5]AK-NH2; staple (Z) 2-6, 9-13) | 3.1 µg/mL (≈ 1.76 µM) | 6.3 µg/mL (≈ 3.59 µM) | 12.5 µg/mL (≈ 7.11 µM) | 1.6 µg/mL (≈ 0.91 µM) | 1.6 µg/mL (≈ 0.91 µM) | 12.5 µg/mL (≈ 7.11 µM) | 6.3 µg/mL (≈ 3.59 µM) | 1.6 µg/mL (≈ 0.91 µM) | 13.5% | 25.5% |  |  | 
7 | CC(=O)N[C@@H](CCCCN)C(=O)N[C@]1(C)CCC/C=C\CCC[C@](C)(C(=O)N[C@@H](CCCCN)C(=O)N[C@@H](CCCCN)C(=O)N[C@@H](C)C(=O)N[C@@H](C)C(=O)N[C@@H](CCCCN)C(=O)N[C@@H](C)C(=O)N[C@@H](C)C(=O)N[C@@H](Cc2c[nH]c3ccccc23)C(=O)N[C@@H](CCCCN)C(N)=O)NC(=O)[C@H](C)NC(=O)[C@H](CCCCN)NC(=O)[C@H](C)NC1=O (Ac-K[R5]AKA[R5]KKAAKAAWK-NH2; staple (Z) 2-6) | 3.1 µg/mL (≈ 1.83 µM) | > 200 µg/mL | 18.8 µg/mL (≈ 11.1 µM) | 75 µg/mL (≈ 44.3 µM) | 25 µg/mL (≈ 14.8 µM) | 18.8 µg/mL (≈ 11.1 µM) | 100 µg/mL (≈ 59.1 µM) | 9.4 µg/mL (≈ 5.56 µM) | < 1% | < 1% |  |  | 73%
8 | CC(=O)N[C@@H](CCCCN)C(=O)N[C@]1(C)CCC/C=C\CCC[C@](C)(C(=O)N[C@@H](CCCCN)C(=O)N[C@@H](CCCCN)C(=O)N[C@]2(C)CCC/C=C\CCC[C@](C)(C(=O)N[C@@H](C)C(=O)N[C@@H](CCCCN)C(N)=O)NC(=O)[C@H](Cc3c[nH]c4ccccc34)NC(=O)[C@H](CCCCN)NC(=O)[C@H](C)NC2=O)NC(=O)[C@H](C)NC(=O)[C@H](CCCCN)NC(=O)[C@H](C)NC1=O (Ac-K[R5]AKA[R5]KK[R5]AKW[R5]AK-NH2; staple (Z) 2-6, 9-13) | 50 µg/mL (≈ 27.8 µM) | 200 µg/mL (≈ 111 µM) | 50 µg/mL (≈ 27.8 µM) | 4.8 µg/mL (≈ 2.67 µM) | 1.6 µg/mL (≈ 0.889 µM) | 100 µg/mL (≈ 55.6 µM) | 100 µg/mL (≈ 55.6 µM) | 3.1 µg/mL (≈ 1.72 µM) | 25.3% | 42.5% |  |  | 
